Source: US20220218679A1, “NOVEL COMPOUNDS AND PHARMACEUTICAL COMPOSITIONS THEREOF FOR THE TREATMENT OF INFLAMMATORY DISORDERS” (Galapagos NV, priority 2019, published 2022)
Read-outs that look alike come from different tables or passages of the source.

Experiments:
THP-1-Lucia NFκB cells = assay: THP1-Lucia NFκB reporter assay (LPS, IL-1β, TNFα triggering); format: cell-based; details: for EC50: 24 h incubation
Source text: This assay was used to evaluate the IRAK4 selectivity and potency of the compounds of the invention upon IRAK4 dependent (LPS and IL-1β) and independent triggering (TNFα), in a THP1-Lucia NFκB reporter assay.
THP-1-Lucia NFκB cells (Invivogen—5, rue Jean Rodier 31400 Toulouse France—cat #thp1-nfkb) were cultivated as recommended by the supplier using split cycles each cycle comprising a succession of thawing/expansion/seeding. The data reported were generated using cells having between 3 to 9 cycles. On the day of the experiment THP-1-Lucia NFκB cells were counted and seeded at a density of 1,000,000 cells/mL in culture medium (RPMI 1640 (Gibco, Cat #52400-025)+10% FBS (Sigma, Cat #F7524-500ML)+1% P/S (Gibco, Cat #15140-122)) by pipetting 54 μL/well in a 384 well plate. Thereafter, 6 μL of a 10× trigger solution was added to all wells, at final concentrations of 2.5, 10 and 3 ng/mL for respectively LPS, TNFα and IL-1β, except for ‘no trigger wells’ where 6 μL culture medium only was added.
After trigger addition, compounds were added with a digital compound dispenser, in a 8-points concentration range, using 3-fold dilution steps and normalizing the final DMSO concentration to 0.2% DMSO in all wells.
After 24 h incubation at 37° C., 5% CO2, 40 μL of supernatant was collected per well and transferred to a new 384 well plate that was then stored at −20° C. until further use.
For the readout, supernatant samples were thawed on ice and 5 μL sample was transferred from each well to a new 384-well plate. 20 μL of Quanti-Luc solution (Quanti-Luc powder (Invivogen, Cat #rep-qlc1) dissolved in 25 mL sterile water as indicated by the manufacturer) was added to each well after which luminescence was immediately measured on an Envision instrument.
To measure the inhibition of LPS/TNFα/IL-1β-induced NFκB-reporter activity, percentage inhibition (PIN) values were calculated for all concentrations tested, compared to controls. […]

mouse CIA model = assay: Mouse collagen induced arthritis (CIA) model; format: in vivo, DBA1/J mice; details: 3, 10 and 30 mg/kg b.i.d., versus disease vehicle group
Description: Completed Freund's adjuvant (CFA) and incomplete Freund's adjuvant (IFA) were purchased from Difco. Bovine collagen type II (CII), lipopolysaccharide (LPS), and Enbrel was obtained from Chondrex (Isle d'Abeau, France); Sigma (P4252, L'Isle d'Abeau, France), Whyett (25 mg injectable syringe, France) Acros Organics (Palo Alto, Calif.), respectively. All other reagents used were of reagent grade and all solvents were of analytical grade.
DBA1/J mice (male, 7-8 weeks old) were obtained from Charles River Laboratories (France). Mice were kept on a 12 h light/dark cycle (07 h 00-19 h 00). Temperature was maintained at 22° C., and food and water were provided ad libitum.
5.1.3. Collagen Induced Arthritis (CIA)
One day before the experiment, CII solution (2 mg/mL) was prepared with 0.05 M AcOH and stored at 4° C. Just before the immunization, equal volumes of adjuvant […] and CII were mixed by a homogenizer in a pre-cooled glass bottle in an ice water bath. Extra adjuvant and prolonged homogenization may be required if an emulsion was not formed. […]
The therapeutic effects of the compounds were tested in the mouse CIA model. […] Body weight and clinical score, were recorded twice a week. […]
Arthritis is scored according to the method of (Khachigian, 2006; Lin et al., 2007; Nishida et al., 2004). […]
For each readout, mean and sem are calculated. […]

EC50 (THP-1-Lucia NFκB cells; IL-1β trigger 3 ng/mL, read-out: IL-1β driven NFκB-reporter activity, average pEC50 (converted)): 100 nM
EC50 (THP-1-Lucia NFκB cells; LPS trigger 2.5 ng/mL, read-out: LPS driven NFκB-reporter activity, average pEC50 (converted)): 100 nM
Structure (SMILES): COc1cn2nc(CCC(C)(C)O)cc2cc1NC(=O)c1cccn(C2CC2)c1=O [Compound 1, 1-cyclopropyl-N-[2-(3-hydroxy-3-methylbutyl)-6-methoxypyrazolo[1,5-a]pyridin-5-yl]-2-oxopyridine-3-carboxamide]
TNFα mediated NFκB-reporter activity (THP-1-Lucia NFκB cells; TNFα trigger 10 ng/mL, 24 h incubation (IRAK4 independent)): no activity was observed
effect on bone erosion Larsen Score (mouse CIA model): statistically significant effect
effect on clinical score (mouse CIA model): statistically significant effect
